Read-outs that look alike come from different tables or passages of the source. Marks after values point to notes of the source that are not given here. Residues, ends and D or L forms follow the SMILES beside them. *: point of attachment. Cbz = O=C(OCc1ccccc1)*
Tests used:
CRBN = conditions: cited from earlier work
[1] = cited from earlier work
CRBN-DDB1 complex = CRBN-DDB1 complex (Homo sapiens, UniProt Q96SW2); assay: fluorescence polarization; format: binding; conditions: for displacement of fluorescence probe (relative binding): single concentration of 1 μM, tested three times
CRBN-DDB1 complex, sequence (Q96SW2 whole entry): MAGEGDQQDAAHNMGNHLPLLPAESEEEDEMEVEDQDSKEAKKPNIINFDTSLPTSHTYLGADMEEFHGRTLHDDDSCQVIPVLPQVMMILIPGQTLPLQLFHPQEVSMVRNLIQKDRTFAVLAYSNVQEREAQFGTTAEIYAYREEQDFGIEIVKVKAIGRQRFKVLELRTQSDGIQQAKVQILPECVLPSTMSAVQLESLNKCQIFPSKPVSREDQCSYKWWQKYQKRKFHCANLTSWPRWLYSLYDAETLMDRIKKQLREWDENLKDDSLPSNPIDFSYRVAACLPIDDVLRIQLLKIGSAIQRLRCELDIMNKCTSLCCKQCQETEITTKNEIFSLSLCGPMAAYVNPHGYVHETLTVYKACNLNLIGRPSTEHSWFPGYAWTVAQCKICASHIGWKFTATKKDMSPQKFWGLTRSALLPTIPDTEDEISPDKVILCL
CRBN-DDB1 complex, sequence (Q16531 whole entry partner): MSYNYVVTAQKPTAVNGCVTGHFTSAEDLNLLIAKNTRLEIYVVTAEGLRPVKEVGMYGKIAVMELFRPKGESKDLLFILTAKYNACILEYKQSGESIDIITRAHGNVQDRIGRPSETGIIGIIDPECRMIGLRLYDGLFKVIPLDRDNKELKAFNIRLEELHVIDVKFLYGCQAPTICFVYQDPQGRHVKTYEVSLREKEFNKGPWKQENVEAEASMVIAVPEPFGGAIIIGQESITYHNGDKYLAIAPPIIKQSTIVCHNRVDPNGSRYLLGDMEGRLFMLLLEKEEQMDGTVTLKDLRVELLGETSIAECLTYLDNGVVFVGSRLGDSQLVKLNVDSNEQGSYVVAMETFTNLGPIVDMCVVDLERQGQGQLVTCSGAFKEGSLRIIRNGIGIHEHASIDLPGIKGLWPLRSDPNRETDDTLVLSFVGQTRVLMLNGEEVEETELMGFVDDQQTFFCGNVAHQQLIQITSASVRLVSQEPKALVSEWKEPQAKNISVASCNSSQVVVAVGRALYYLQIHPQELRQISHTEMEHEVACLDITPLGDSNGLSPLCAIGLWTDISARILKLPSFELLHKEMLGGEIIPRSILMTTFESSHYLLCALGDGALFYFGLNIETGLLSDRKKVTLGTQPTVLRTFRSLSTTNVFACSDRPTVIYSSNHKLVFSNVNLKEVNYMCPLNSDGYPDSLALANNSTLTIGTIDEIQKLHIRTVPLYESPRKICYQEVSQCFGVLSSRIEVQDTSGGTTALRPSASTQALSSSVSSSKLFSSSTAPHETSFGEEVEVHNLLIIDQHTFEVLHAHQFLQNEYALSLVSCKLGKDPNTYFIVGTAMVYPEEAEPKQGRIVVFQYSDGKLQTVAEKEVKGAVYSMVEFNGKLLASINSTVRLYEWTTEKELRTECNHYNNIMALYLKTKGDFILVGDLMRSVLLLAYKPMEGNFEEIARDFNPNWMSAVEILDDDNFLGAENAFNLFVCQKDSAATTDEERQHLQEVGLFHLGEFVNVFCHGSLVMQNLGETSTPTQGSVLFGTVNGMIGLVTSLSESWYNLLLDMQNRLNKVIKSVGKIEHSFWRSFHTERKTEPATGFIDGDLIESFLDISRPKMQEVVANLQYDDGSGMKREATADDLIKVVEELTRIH

IKZF3 = assay: Western blot of IKZF3 in MV4; format: cell-based, human; conditions: MV4;11 cells, 10 and 1 μM, 24 h
IKZF1 = assay: Western blot of IKZF1 in MV4; format: cell-based, human; conditions: MV4;11 cells, 10 and 1 μM, 24 h
[2] = ring opening hydrolysis stability in buffer with different pHs; format: physicochemical; conditions: for pH=1.0, ring opening hydrolysis, percent compound remaining: pH 1.0, after 24 h; for pH=7.4, ring opening hydrolysis, percent compound remaining: pH 7.4 buffer, after 24 h, 37°C
GSPT1 = assay: Western blot of GSPT1 in MV4; format: cell-based, human; conditions: MV4;11 cells, 10 and 1 μM, 24 h
MV4;11 cells [3] = assay: AlamarBlue cell viability; format: cell-based, human; conditions: 72 h
BRD4 = BRD4 (Homo sapiens, UniProt O60885); assay: Western blot of BRD4; conditions: for effect of pretreatment on BRD4 degradation induced by 13: pretreated 1 h, then 13 for 3 h; for degradation of BRD4: 24 h
MV4;11 cells [4] = assay: flow cytofluorimetric apoptosis analysis; format: cell-based, human; conditions: 48 h
caspase 3 cleavage = assay: Western blot of caspase 3 and cleaved caspase 3 in MV4; conditions: MV4;11 cells, 10 nM to 10 μM, 24 h
MV4;11 cells [5] = assay: flow cytofluorimetric cell cycle analysis; format: cell-based, human; conditions: 48 h
[6] = in human blood; cited from earlier work
[7] = in-vivo in humans; cited from earlier work

Compound: O=C1CC[C@H](N2C(=O)c3ccccc3C2=O)C(=O)N1 (single isomer, unassigned) [(S)-enantiomeric thalidomide]
- binding affinity to CRBN relative to the (R)-enantiomer (CRBN): at least 10 fold

Compound: [2H]C1(N2C(=O)c3ccccc3C2=O)CCC(=O)NC1=O (stereo not drawn) [Compound 1D]
- racemization relative to thalidomide [1]: about five times slower than thalidomide

Compound: O=C1CCN(c2ccccc2O)C(=O)N1 [Compound 3A, 1-(2-hydroxyphenyl)dihydropyrimidine-2,4(1H,3H)-dione]
- displacement of fluorescence probe (relative binding) (CRBN-DDB1 complex): almost completely lost the binding

Compound: Cc1ccccc1N1CCC(=O)NC1=O [Compound 3B, 1-(o-tolyl)dihydropyrimidine-2,4(1H,3H)-dione]
- increase of affinity by ortho-Me relative to parent PDHU 2 (CRBN-DDB1 complex; FP assay): about 2.5 times

Compound: COc1ccccc1N1CCC(=O)NC1=O [Compound 3C, 1-(2-methoxyphenyl)dihydropyrimidine-2,4(1H,3H)-dione]
- displacement of fluorescence probe (relative binding) (CRBN-DDB1 complex): decreased the binding

Compound: Cc1c(C#CCNC(=O)OC(C)(C)C)cccc1N1CCC(=O)NC1=O [Compound 6F, tert-butyl (3-(3-(2,4-dioxotetrahydropyrimidin-1(2H)-yl)-2-methylphenyl)prop-2-yn-1-yl)carbamate]
- degradation of IKZF3 (IKZF3): do not induce the degradation
- degradation of IKZF1 (IKZF1): do not induce the degradation
- pH=1.0, ring opening hydrolysis, percent compound remaining [2]: >99^[g] %
- pH=7.4, ring opening hydrolysis, percent compound remaining [2]: >99%
- degradation of GSPT1 (GSPT1): do not induce the degradation

Compound: Cc1c(OCC(=O)N2CCCCC2)cccc1N1CCC(=O)NC1=O [Compound 9, 1-(2-methyl-3-(2-oxo-2-(piperidin-1-yl)ethoxy)phenyl)dihydropyrimidine-2,4(1H,3H)-dione]
- anti-proliferation activity (MV4;11 cells [3]; at up to 100 μM): did not show any anti-proliferation activity
- degradation of IKZF3 (IKZF3): do not induce the degradation
- degradation of IKZF1 (IKZF1): do not induce the degradation
- pH=1.0, ring opening hydrolysis, percent compound remaining [2]: >99%
- pH=7.4, ring opening hydrolysis, percent compound remaining [2]: >99%
- degradation of GSPT1 (GSPT1): do not induce the degradation
- effect of pretreatment on BRD4 degradation induced by 13 (BRD4; MV4;11 cells): abolished the BRD4 degradation induced by 13

Compound: CCNC(=O)COc1cccc(N2CCC(=O)NC2=O)c1C [Compound 10, 2-(3-(2,4-dioxotetrahydropyrimidin-1(2H)-yl)-2-methylphenoxy)-N-ethylacetamide]
- degradation of IKZF3 (IKZF3): do not induce the degradation
- degradation of IKZF1 (IKZF1): do not induce the degradation
- pH=1.0, ring opening hydrolysis, percent compound remaining [2]: >99%
- pH=7.4, ring opening hydrolysis, percent compound remaining [2]: >99%
- degradation of GSPT1 (GSPT1): do not induce the degradation

Compound: CC(=O)NCCC#Cc1cccc(N2CCC(=O)NC2=O)c1C [Compound 11, N-(4-(3-(2,4-dioxotetrahydropyrimidin-1(2H)-yl)-2-methylphenyl)but-3-yn-1-yl)acetamide]
- degradation of IKZF3 (IKZF3): do not induce the degradation
- degradation of IKZF1 (IKZF1): do not induce the degradation
- pH=1.0, ring opening hydrolysis, percent compound remaining [2]: >99%
- pH=7.4, ring opening hydrolysis, percent compound remaining [2]: >99%
- degradation of GSPT1 (GSPT1): do not induce the degradation

Compound: Cc1sc2c(c1C)C(c1ccc(Cl)cc1)=N[C@@H](CC(=O)NCCCC#Cc1cccc(N3CCC(=O)NC3=O)c1C)c1nnc(C)n1-2 [Compound 12C, (S)-2-(4-(4-chlorophenyl)-2,3,9-trimethyl-6H-thieno[3,2-f][1,2,4]triazolo[4,3-a][1,4]diazepin-6-yl)-N-(5-(3-(2,4-dioxotetrahydropyrimidin-1(2H)-yl)-2-methylphenyl)pent-4-yn-1-yl)acetamide]
- degradation of BRD4 (BRD4; in MV4;11 and LNCAP, 1.0 and 0.1 μM): showed obviously BRD4 degradation activity

Compound: Cc1sc2c(c1C)C(c1ccc(Cl)cc1)=N[C@@H](CC(=O)NC1CCN(C(=O)COc3cccc(N4CCC(=O)NC4=O)c3C)CC1)c1nnc(C)n1-2 [Compound 13, (S)-2-(4-(4-chlorophenyl)-2,3,9-trimethyl-6H-thieno[3,2-f][1,2,4]triazolo[4,3-a][1,4]diazepin-6-yl)-N-(1-(2-(3-(2,4-dioxotetrahydropyrimidin-1(2H)-yl)-2-methylphenoxy)acetyl)piperidin-4-yl)acetamide]
- cell apoptosis (MV4;11 cells [4]): induced cell apoptosis in a dose-dependent manner
- caspase 3 cleavage (caspase 3 cleavage): successful in inducing caspase 3 cleavage
- cell cycle effect (MV4;11 cells [5]): induce G1 phase arrest, decrease the cell population in S phase

Compound: Cc1sc2c(c1C)C(c1ccc(Cl)cc1)=N[C@@H](CC(=O)NC1CCN(C(=O)COc3cccc(N4CCC(=O)N(C)C4=O)c3C)CC1)c1nnc(C)n1-2 [Compound 13NT, (S)-2-(4-(4-chlorophenyl)-2,3,9-trimethyl-6H-thieno[3,2-f][1,2,4]triazolo[4,3-a][1,4]diazepin-6-yl)-N-(1-(2-(2-methyl-3-(3-methyl-2,4-dioxotetrahydropyrimidin-1(2H)-yl)phenoxy)acetyl)piperidin-4-yl)acetamide]
- degradation of BRD4 (BRD4; MV4;11 cells, several different concentrations): no degradation activity of BRD4 was observed

Compound: Cc1sc2c(c1C)C(c1ccc(Cl)cc1)=N[C@@H](CC(=O)OC(C)(C)C)c1nnc(C)n1-2 [JQ1, reference compound]
- anti-proliferation activity (MV4;11 cells [3]): weaker anti-proliferation activity than 13, but higher activity than compound 13NT

Compound: Nc1cccc2c1CN(C1CCC(=O)NC1=O)C2=O (stereo not drawn) [Lenalidomide, lenalidomide, reference compound]
- pH=1.0, ring opening hydrolysis, percent compound remaining [2]: >99%
- pH=8.8, ring opening hydrolysis, percent compound remaining ([2]; pH 8.8, after 24 h): 0%

Compound: CC(C)C[C@@H](C=O)NC(=O)[C@H](CC(C)C)NC(=O)[C@H](CC(C)C)NC(=O)OCc1ccccc1 [MG132, reference compound] (Cbz-Leu-Leu-Leu-aldehyde)
- effect of pretreatment on BRD4 degradation induced by 13 (BRD4; MV4;11 cells): abolished the BRD4 degradation induced by 13

Compound: NS(=O)(=O)OC[C@@H]1C[C@@H](n2ccc3c(N[C@H]4CCc5ccccc54)ncnc32)C[C@@H]1O [MLN4924, reference compound]
- effect of pretreatment on BRD4 degradation induced by 13 (BRD4; MV4;11 cells): abolished the BRD4 degradation induced by 13

Compound: O=C1CCC(N2C(=O)c3ccccc3C2=O)C(=O)N1 (stereo not drawn) [thalidomide]
- racemization half-life [6]: ~ 2.0 h
- racemization half-life [7]: ~ 5.0 h

Source: article PMC10398712 (Journal of medicinal chemistry, 2023)
